From patent US20200247846A1, “INHIBITION OF OXIDATIVE STRESS, GLYCATION, AND PROTEIN CROSSLINKING” (THE REGENTS OF THE UNIVERSITY OF COLORADO, A BODY CORPORATE, priority 2017, published 2020)

How the values were obtained:
[1] = Stability of GTG in buffers, UPLC-MS MRM analysis; assay type: physicochemical; conditions: for stability: up to 48 h
Protocol: All chromatographic analyses were carried out in a Waters Acquity UPLC system connected to a Sciex 4500 QTrap (Redwood City, Calif.). Mass spectrometric analyses were carried out in the multiple reaction monitoring (MRM) mode. Chromatographic separations were carried out in an ACQUITY BEH C18 peptide column (100*2.1 mm, 1.7 μm; Waters) connected to a guard column using a flow rate of 0.5 ml/min. Water (solvent A) and acetonitrile (solvent B) were used as eluents. To both solvents, 0.1% heptafluorobutyric acid (v/v) was added. Analyses were performed at a column temperature of 40° C. using gradient elution: 5% B (0-0.25 min) to 20% B (2 min) to 50% B (3 min) to 100% B (3.5-5 min). The column was equilibrated at 5% B for 1 min prior to the next analysis. Detection of the analytes was achieved by using full scan mode for the identification of metabolites in preparative HPLC fraction and multiple reaction monitoring for the quantitation in stability experiments. The ion source was run under the following conditions: temperature, 550° C.; ion spray voltage, 4.5 kV; curtain gas, 45 ml/min; nebulizer gas, 60 ml/min; heating gas, 60 ml/min.
To test the stability, GTG was incubated under various conditions. The following buffers were used: 0.1 M phosphate buffer pH 5, 0.1 M phosphate buffer pH 7, 0.1 M phosphate buffer pH 9 and 0.1% formic acid. 10 μM solutions of […] in each buffer were stored at 4° C., 25° C. or 37° C. for up to 48 h, respectively. Sample aliquots were directly injected to ULPC-MS for MRM analysis. For the identification of degradation products sample aliquots were analyzed using full scan mode.

αB-Crystallin = αB-Crystallin incubated with methylglyoxal with or without GTG: covalent crosslinking and AGE levels; assay type: biochemical; conditions: 250 μM GTG + 250 μM MGO
Protocol: Legend: 1. αB-crystallin control, 2. αB-crystallin+250 μM GTG, 3. αB-crystallin+250 μM MGO, 4. αB-crystallin+250 μM GTG+250 μM MGO. The bar graphs are means±SD of triplicate measurements. ***p<0.0005. […] Lanes: 1. MW marker, 2. αB-crystallin standard, 3. αB-crystallin blank, 4. αB-crystallin+250 μM GTG, 5. αB-crystallin+250 μM MGO, 5. αB-crystallin+250 μM GTG and 250 μM MGO.
To test the efficacy of GTG in the inhibition of AGE production, αB-Crystallin was incubated with methylglyoxal in the presence or absence of GTG and analyzed for covalent crosslinking and AGE levels.

[2] = system: human lens cells (FHL 124); test: FHL 124 cells: levels of GTG metabolites and α-dicarbonyls; assay type: cell-based
Protocol: FIG. 6A depicts the scheme of dehydroascorbate (DHA) degradation and formation of reactive α-dicarbonyls and AGEs. […] The bar graphs are means±SD of triplicate measurements. **p<0.005, ***p<0.0005.
Next, human lens cells (FHL 124) were incubated with dehydroascorbic acid in the presence or absence of GTG and analyzed for levels of GTG and its metabolites as well as α-dicarbonyls. […] FHL124 cells were pretreated with GTG before either DHA or MGO was added.

diabetic mice = test: AGE levels in lenses and retinas of STZ-diabetic mice by UPLC-MS/MS; assay type: in vivo; conditions: 1 nmole/g body weight i.p. once every two days, 8 weeks; vs untreated diabetic controls
Protocol: The bar graphs are the means±SD of at least 8 measurements. *p<0.05, **p<0.005.
GTG was also tested in diabetic mice. Diabetes was induced by repeated STZ injections. GTG (1 nmole/g body weight) was injected intraperitoneally once every two days. After 8 weeks, lenses and retinas were harvested and analyzed for AGE levels by UPLC-MS/MS.

Mouse lenses = test: Mouse lens stiffness (axial and equatorial strain under load); conditions: 1.5 mM GTG, 48 h, 37° C.; load of 2,700 mg
Protocol: Mouse lenses (6 months old) were incubated with 1.5 mM GTG for 48 h at 37° C. in serum free MEM in a CO2 incubator. Lens stiffness was measured using a set up as described previously (Cheng C, et al., Journal of visualized experiments: JoVE. 2016, (111):10.3791/ 53986). Lens stiffness was measured using a load of 2,700 mg. Axial and equatorial strains were calculated as previously described (Chen, JOVE 2016, supra).

stability ([1]; 0.1% formic acid, 10 μM, 4° C., 25° C. or 37° C.): stable at all temperatures
stability ([1]; 0.1 M phosphate buffer pH 5, 4° C.): stable
stability ([1]; 0.1 M phosphate buffer pH 5, 25° C.): stable
stability ([1]; 0.1 M phosphate buffer pH 5, 37° C.): slightly degraded
stability ([1]; 0.1 M phosphate buffer pH 7, 4° C., 25° C. or 37° C.): degraded at all temperatures
stability ([1]; 0.1 M phosphate buffer pH 9, 4° C., 25° C. or 37° C.): degraded at all temperatures
reduction of the disulfide bond during the incubation ([1]; all buffer and temperature conditions of the stability test): not observed
penetration of the plasma membrane of FHL124 cells ([2]; 50 mM GTG for 2 h): able to penetrate the plasma membrane
Compound: CCOC(=O)CNC(=O)C(CSSCCNC(=N)N)NC(=O)CCC(N)C(=O)OCC (stereo not shown) [GTG, glutathione diethyl ester thioethylguanidine disulfide]
covalent crosslinking in αB-crystallin incubated with methylglyoxal (αB-Crystallin; SDS-PAGE): significantly reduced
AGE formation (CEL levels) in αB-crystallin incubated with methylglyoxal (αB-Crystallin; after acid hydrolysis): significantly reduced
intracellular conversion to glutathione and mercaptoethylguanidine ([2]; 50 mM GTG for 2 h, FHL124 cells): immediately reduced and hydrolyzed to glutathione and mercaptoethylguanidine
reactive α-dicarbonyls derived from dehydroascorbic acid ([2]; cells treated 24 h with dehydroascorbic acid, subsequent incubation with GTG): significant reduction
AGE levels in the lens (diabetic mice): lower
AGE levels in the retina (diabetic mice): lower
improvement of axial strain in comparison to control lenses (Mouse lenses): 23%
improvement of equatorial strain in comparison to control lenses (Mouse lenses): 72%
